Measured values: patent publication US20210330611A1, “THERAPY FOR NEUROLOGICAL DISEASES/DISORDERS” (priority 2020, published 2021)
Several values for one entry are separate records, joined by “and”; a condition that tells them apart may be missing. Equal values may be shown once. Where a name gives a salt, the structure may show the parent alone. Read-outs that look alike come from different tables or passages of the source.

Experiments:
[1] = test system: primary rat microglia
[2] = test system: primary rat microglia; assay: Cell toxicity (dead cells, size <150 μm2) in coated fibrin (cFib) assay; details: primary microglia HTS, fibrin assay, dead cells (size <150 μm2), compounds at 10 μM;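 further: share of dead cells sized under 150 µm2 at 10 µM in fibrin-stimulated microglia HTS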
[3] = test system: fibrin-induced microglia activation; assay: Image-based assay of fibrin-induced microglia activation (HTS and dose response); type: cell-based, rat; details: primary microglia HTS, fibrin stimulation, compounds at 10 μM; for inhibition at 10 µM: Rattus norvegicus, Microglia, read-out: Fibrin % inhibition
[4] = test system: LPS-induced microglia activation; assay: Image-based assay of LPS-induced microglia activation (HTS and dose response); type: cell-based, rat; details: primary microglia HTS, LPS stimulation, compounds at 10 μM; for inhibition at 10 µM: Rattus norvegicus, Microglia, read-out: LPS % inhibition
[5] = test system: fibrin- and LPS-induced microglia activation; assay: cells; type: cell-based, rat; details: classification by fibrin and LPS inhibition, HTS at 10 μM

SMILES	LPS % cell toxicity ([1]; rat) [%]	Fibrin % cell toxicity [2] [%]	inhibition at 10 µM [3] [%]	inhibition at 10 µM [4] [%]	Quadrant (FIG. 5b) [5]	Fibrin % inhibition ([3]; 10 µM)	LPS % inhibition ([4]; 10 µM)	LPS % cell toxicity [1] [%]	Fibrin % inhibition [3] [%]	LPS % inhibition [4] [%]
C[C@H](CCC(=O)O)[C@H]1CC[C@H]2[C@@H]3C(=O)C[C@@H]4CC(=O)CC[C@]4(C)[C@H]3CC(=O)[C@]12C [Dehydrocholic Acid]	0	1	-30	7	Q4					
CC(C)Nc1cccnc1N1CCN(C(=O)c2cc3cc(NS(C)(=O)=O)ccc3[nH]2)CC1 [Delavirdine]	1	1	-11	9	Q4					
CC[N+](CC)(CC(=O)Nc1c(C)cccc1C)Cc1ccccc1 [Denatonium Benzoate]	0	0	2	12	Q4					
Cc1cc(N)c2ccccc2[n+]1CCCCCCCCCC[n+]1c(C)cc(N)c2ccccc21 [Dequadin]	0	0	-32	2	Q4					
COc1ccc(-c2cc(C(F)F)nn2-c2ccc(S(N)(=O)=O)cc2)cc1F [Deracoxib]	0	0	-34	8	Q4					
CCN[C@@H](C)Cc1cccc(C(F)(F)F)c1 [Dexfenfluramine]	0	1	-15	5	Q4					
Cc1c(OCC(F)(F)F)ccnc1C[S@@+]([O-])c1nc2ccccc2[nH]1 [Dexlansoprazole]	0	0	-23	-12	Q4					
CC(C)(CO)[C@@H](O)C(=O)NCCCO [Dexpanthenol]	0	0	-1	11	Q4					
COc1ccc2c(c1)[C@]13CCCC[C@@H]1[C@H](C2)N(C)CC3 [Dextromethorphan]	0	1			Q4	−18% and −20%	4% and −5%			
CCC(=O)O[C@](Cc1ccccc1)(c1ccccc1)[C@H](C)CN(C)C [Dextropropoxyphene]	0	1	-25	15	Q4					
CC(=O)Oc1cccc2c1C(=O)c1c(OC(C)=O)cc(C(=O)O)cc1C2=O [Diacerin]		1			Q4			0	−30	10
CC(=O)Nc1ccc(OC(C)=O)cc1 [Diacetamate]	0	1	-25	21	Q4					
CCOP(=S)(OCC)Oc1cc(C)nc(C(C)C)n1 [Diazinon, Dimpylate]		1			Q4			0	−7	−8
CC1=NS(=O)(=O)c2cc(Cl)ccc2N1 [Diazoxide]	0	0	3	24	Q4					
c1ccc2c(c1)sc1ccccc12 [Dibenzothiophene]	0	0	-21	14	Q4					
CCCCOC(=O)c1ccccc1C(=O)OCCCC [Dibutyl Phthalate]	0	1	-30	9	Q4					
Oc1ccc(Cl)cc1Cc1cc(Cl)ccc1O [Dichlorophene, Dichlorophen]		1			Q4			0	−23	15
N#CC(c1ccc(Cl)cc1)c1c(Cl)cc(-n2ncc(=O)[nH]c2=O)cc1Cl (stereo not shown) [Diclazuril]	0	1	48	21	Q4					
Cc1onc(-c2c(Cl)cccc2Cl)c1C(=O)N[C@@H]1C(=O)N2[C@@H]1SC(C)(C)[C@@H]2C(=O)O [Dicloxacillin]	0	0	-23	14	Q4					
C/C=C(/C(=C/C)c1ccc(O)cc1)c1ccc(O)cc1 [Dienestrol]	0	1	17	21	Q4					
CCN(CC)C(=O)N1CCN(C)CC1 [Diethylcarbamazine]	0	0	-26	11	Q4					
CN1CCN(c2cc3c(cc2F)c(=O)c(C(=O)O)cn3-c2ccc(F)cc2)CC1 [Difloxacin Hydrochloride]	1	1	25	33	Q4					
CN[C@@H]1[C@H](O[C@H]2[C@H](O[C@H]3[C@H](O)[C@@H](O)[C@H](NC(=N)N)[C@@H](O)[C@@H]3NC(=N)N)O[C@@H](C)[C@]2(O)CO)O[C@@H](CO)[C@H](O)[C@H]1O [Dihydrostreptomycin Sulfate]	0	1	-7	12	Q4					
Oc1c(I)cc(I)c2cccnc12 [Diiodohydroxyquinoline]	0	1	-6	22	Q4					
CN(C(=O)C(Cl)Cl)c1ccc(OC(=O)c2ccco2)cc1 [Diloxanide Furoate]	0	1	-3	17	Q4					
O=S(=O)([O-])CCSSCCS(=O)(=O)[O-].[Na+].[Na+] [Dimesna]		1			Q4			0	−19	13
CC1(C)OC(=O)NC1=O [Dimethadione]	0	1	-13	14	Q4					
COC(=O)/C=C/C(=O)OC [Dimethyl Fumarate]	0	0	4	16	Q4					
N=C(N)c1ccc(/N=N/Nc2ccc(C(=N)N)cc2)cc1 [Diminazene]	0	0	-58	11	Q4					
